In ChEMBL document CHEMBL3758085, “Synthesis and cytotoxicity of thieno[2,3-b]quinoline-2-carboxamide and cycloalkyl[b]thieno[3,2-e]pyridine-2-carboxamide derivatives” (Bioorg Med Chem, 2016):
The source made the active and inactive calls. The calls are words filed in the database; no cut-off is given here.

Legend:
[1] = Antiproliferative activity against human HCT116 cells assessed as cell growth at 1 uM incubated for 3 days by 3H-thymidine incorporation assay relative to control; type: functional; settings: HCT-116, read-out: Activity
[2] = test system: MDA-MB-468; test: Antiproliferative activity against human MDA-MB-468 cells assessed as cell growth at 1 uM incubated for 3 days by 3H-thymidine incorporation assay relative to control; type: functional; settings: read-out: Activity
[3] = test system: MDA-MB-231; test: Antiproliferative activity against human MDA-MB-231 cells assessed as cell growth at 1 uM incubated for 3 days by 3H-thymidine incorporation assay relative to control; type: functional; settings: read-out: Activity
[4] = Antiproliferative activity against human HCT116 cells assessed as cell growth incubated for 3 days by 3H-thymidine incorporation assay relative to control; type: functional, cell-based; settings: HCT-116
[5] = test system: MDA-MB-468; test: Antiproliferative activity against human MDA-MB-468 cells assessed as cell growth incubated for 3 days by 3H-thymidine incorporation assay relative to control; type: functional, cell-based
[6] = test system: MDA-MB-231; test: Antiproliferative activity against human MDA-MB-231 cells assessed as cell growth incubated for 3 days by 3H-thymidine incorporation assay relative to control; type: functional, cell-based
[7] = test system: K562; test: Antiproliferative activity against human K562 cells assessed as cell growth incubated for 3 days by 3H-thymidine incorporation assay relative to control; type: functional, cell-based
[8] = test system: Escherichia coli; test: Antibacterial activity against Escherichia coli DH5[alpha] at 1 to 10 mg/ml incubated overnight by agar diffusion method; type: functional, organism-based
[9] = test system: Pseudomonas aeruginosa; test: Antibacterial activity against Pseudomonas aeruginosa at 1 to 10 mg/ml incubated overnight by agar diffusion method; type: functional, organism-based
[10] = test system: Staphylococcus aureus; test: Antibacterial activity against Staphylococcus aureus at 1 to 10 mg/ml incubated overnight by agar diffusion method; type: functional, organism-based

Row | IC50 [5] [nM] | IC50 [6] [nM] | IC50 [7] [nM] | Structure (SMILES) | growth at 1 µM [1] [%] | growth at 1 µM [2] [%] | growth at 1 µM [3] [%] | IC50 [4] [nM] | Activity [8] | Activity [9] | Activity [10]
1 | 351 | 448 | 558 | Nc1c(C(=O)Nc2cccc(F)c2)sc2nc3c(cc12)CCCCC3 | 29 | 10 | 28 | 543 |  |  | 
2 | 383 | 508 | 570 | Nc1c(C(=O)Nc2ccccc2)sc2nc3c(cc12)CCCCC3 | 6 | 5 | 26 | 606 |  |  | 
3 | 83 | 170 | 83 | Cc1cccc(NC(=O)c2sc3nc4c(cc3c2N)CCCCCC4)c1C | 6 | 4 | 3 | 183 |  |  | 
4 | 185 | 233 | 185 | Cc1c(Br)cccc1NC(=O)c1sc2nc3c(cc2c1N)CCCC3 | 5 | 3 | 5 | 207 |  |  | 
5 | 148 | 204 | 152 | Cc1cccc(NC(=O)c2sc3nc4c(cc3c2N)CCCC4)c1C | 5 | 3 | 4 | 199 |  |  | 
6 |  |  |  | COc1cccc(NC(=O)c2sc3nc4c(cc3c2N)CCC4)c1 | 92 | 63 | 95 |  | inactive | inactive | inactive
7 | 79 | 84 | 83 | Cc1c(Br)cccc1NC(=O)c1sc2nc3c(cc2c1N)CCC3 | 5 | 5 | 16 | 161 |  |  | 
8 | 398 | 632 | 554 | Nc1c(C(=O)Nc2cccc(F)c2)sc2nc3c(cc12)CCCC3 | 11 | 11 | 30 | 563 |  |  | 
9 | 372 | 587 | 562 | Nc1c(C(=O)Nc2ccccc2F)sc2nc3c(cc12)CCCCCC3 | 5 | 5 | 24 | 599 |  |  | 
10 |  |  |  | Nc1c(C(=O)Nc2ccccc2Cl)sc2nc3c(cc12)CCCC3 | 94 | 95 | 119 |  | inactive | inactive | inactive
11 | 528 | 672 | 575 | Nc1c(C(=O)Nc2ccccc2F)sc2nc3c(cc12)CCCCC3 | 15 | 11 | 46 | 798 |  |  | 
12 |  |  |  | Nc1c(C(=O)Nc2cccc(C(F)(F)F)c2)sc2nc3c(cc12)CCCCC3 | 108 | 92 | 94 |  |  |  | 
13 |  |  |  | Nc1c(C(=O)Nc2cccc([N+](=O)[O-])c2)sc2nc3c(cc12)CCCC3 | 75 | 44 | 71 |  |  |  | 
14 | 199 | 198 | 223 | Cc1c(Br)cccc1NC(=O)c1sc2nc3c(cc2c1N)CCCCC3 | 8 | 3 | 12 | 442 |  |  | 
15 |  |  |  | Cc1ccccc1NC(=O)c1sc2nc3c(cc2c1N)CCCCC3 | 66 | 25 | 43 |  |  |  | 
16 |  |  |  | COc1ccc2nc3sc(C(=O)Nc4cc(Cl)ccc4OC)c(N)c3cc2c1 | 100 | 104 | 86 |  |  |  | 
17 |  |  |  | Nc1c(C(=O)Nc2ccccc2F)sc2nc3c(cc12)CCCC3 | 84 | 48 | 92 |  |  |  | 
18 |  |  |  | CCc1cccc(CC)c1NC(=O)c1sc2nc3c(cc2c1N)CCCC3 | 108 | 116 | 115 |  |  |  | 
19 | 121 | 198 | 167 | Cc1cccc(NC(=O)c2sc3nc4c(cc3c2N)CCCCC4)c1C | 6 | 4 | 6 | 204 |  |  | 
20 |  |  |  | Cc1ccc(C)c(NC(=O)c2cc3cc4cc(C)ccc4nc3s2)c1 | 98 | 77 | 103 |  |  |  | 
21 | 391 | 524 | 580 | COc1cccc(NC(=O)c2sc3nc4c(cc3c2N)CCCCC4)c1 | 6 | 3 | 19 | 601 |  |  | 
22 |  |  |  | Nc1c(C(=O)Nc2ccccc2C(F)(F)F)sc2nc3c(cc12)CCCCC3 | 112 | 100 | 124 |  |  |  | 
23 |  |  |  | Nc1c(C(=O)Nc2ccc3ccccc3c2)sc2nc3c(cc12)CCCC3 | 100 | 76 | 120 |  |  |  | 
24 | 407 | 617 | 526 | Nc1c(C(=O)Nc2ccccc2)sc2nc3c(cc12)CCCC3 | 5 | 8 | 22 | 594 |  |  | 
25 |  |  |  | Cc1ccc2nc3sc(C(=O)Nc4cccc(F)c4)cc3cc2c1 | 98 | 91 | 103 |  |  |  | 

Row | IC50 [5] [nM] | IC50 [6] [nM] | IC50 [7] [nM] | Structure (SMILES) | growth at 1 µM [1] [%] | growth at 1 µM [2] [%] | growth at 1 µM [3] [%] | IC50 [4] [nM] | Activity [8] | Activity [9] | Activity [10]
26 |  |  |  | Nc1c(C(=O)Nc2ccc(F)cc2)sc2nc3c(cc12)CCCCCC3 | 82 | 65 | 100 |  |  |  | 
27 |  |  |  | CCOc1ccc2nc3sc(C(=O)Nc4ccc(C(C)=O)cc4)c(N)c3cc2c1 | 96 | 87 | 97 |  |  |  | 
28 |  |  |  | COc1ccc(OC)c(NC(=O)c2sc3nc4c(cc3c2N)CCCCC4)c1 | 98 | 94 | 117 |  |  |  | 
29 |  |  |  | COc1ccc(NC(=O)c2sc3nc4ccccc4cc3c2N)cc1 | 97 | 68 | 101 |  |  |  | 
30 |  |  |  | Cc1ccc2nc3sc(C(=O)Nc4ccccc4)cc3cc2c1 | 95 | 81 | 92 |  |  |  | 
31 |  |  |  | Nc1c(C(=O)Nc2cccc(Cl)c2)sc2nc3c(cc12)CCCCC3 | 86 | 39 | 95 |  |  |  | 
32 |  |  |  | Nc1c(C(=O)Nc2cc(C(F)(F)F)ccc2Cl)sc2nc3c(cc12)CCCCC3 | 98 | 106 | 105 |  |  |  | 
33 |  |  |  | COc1ccc(NC(=O)c2sc3nc4c(cc3c2N)CCCCC4)cc1OC | 98 | 77 | 114 |  |  |  | 
34 |  |  |  | Cc1cc(C)c(NC(=O)c2sc3nc4c(cc3c2N)CCCC4)c(C)c1 | 101 | 93 | 97 |  |  |  | 
35 |  |  |  | CC(=O)c1ccc(NC(=O)c2sc3nc4ccccc4cc3c2N)cc1 | 93 | 70 | 95 |  |  |  | 
36 |  |  |  | Nc1c(C(=O)Nc2cccc(Cl)c2)sc2nc3c(cc12)CCC3 | 87 | 53 | 92 |  |  |  | 
37 |  |  |  | CCc1cccc(NC(=O)c2sc3nc4c(cc3c2N)CC(CC)CC4)c1 (centres undefined) | 73 | 12 | 73 |  |  |  | 
38 |  |  |  | Cc1ccc2cc3c(N)c(C(=O)Nc4ccccc4[N+](=O)[O-])sc3nc2c1 | 102 | 101 | 90 |  |  |  | 
39 | 546 | 593 | 197 | Cc1c(Cl)cccc1NC(=O)c1sc2nc3c(cc2c1N)CCC3 | 3 | 4 | 11 | 218 |  |  | 
40 | 160 | 190 | 210 | Cc1c(Cl)cccc1NC(=O)c1sc2nc3c(cc2c1N)CCCCC3 | 10 | 3 | 13 | 266 |  |  | 
41 |  |  |  | Cc1cccc(NC(=O)c2cc3cc4cc(C)ccc4nc3s2)c1 | 100 | 84 | 105 |  |  |  | 
42 |  |  |  | Nc1c(C(=O)Nc2cccc([N+](=O)[O-])c2)sc2nc3c(cc12)CCCCC3 | 51 | 18 | 67 |  |  |  | 
43 |  |  |  | CC(=O)c1cccc(NC(=O)c2sc3nc4c(cc3c2N)CCCCCC4)c1 | 85 | 72 | 117 |  |  |  | 
44 |  |  |  | Nc1c(C(=O)Nc2cccc3ccccc23)sc2nc3c(cc12)CCC3 | 92 | 67 | 80 |  |  |  | 
45 |  |  |  | Nc1c(C(=O)Nc2ccccc2Cl)sc2nc3c(c(C(F)(F)F)c12)CCCCCC3 | 112 | 100 | 116 |  |  |  | 
46 |  |  |  | Nc1c(C(=O)Nc2cccc(Br)c2)sc2nc3c(cc12)CCCC3 | 85 | 45 | 101 |  |  |  | 
47 |  |  |  | Nc1c(C(=O)Nc2ccccc2)sc2nc3c(cc12)CCC3 | 94 | 76 | 90 |  |  |  | 
48 |  |  |  | COc1ccc(NC(=O)c2sc3nc4c(cc3c2N)CCCC4)cc1 | 99 | 84 | 98 |  |  |  | 
49 |  |  |  | Nc1c(C(=O)Nc2ccc(Cl)c(Cl)c2)sc2nc3c(cc12)CCCCC3 | 103 | 77 | 115 |  |  |  | 
50 |  |  |  | Nc1c(C(=O)Nc2cccc(Cl)c2)sc2nc3c(cc12)CCCC3 | 80 | 58 | 98 |  | inactive | inactive | inactive
